≈ marks a conversion by molar mass, not a printed value.
Legend:
[1] = Lipophilicity, log D of the compound by HPLC analysis; format: physicochemical
[2] = Octanol-buffer partition coefficient, log D of the compound at pH 7.4 after 30 mins by shake-flask method; format: physicochemical
[3] = Aqueous solubility of the compound in phosphate buffer at pH 7.4 after 24 hrs by LC-UV analysis; format: physicochemical
[4] = Dissociation constant, pKa of the compound; format: physicochemical
[5] = Drug uptake in mouse brain at 20 mg/kg, po measured at 1 hr; format: ADME, organism-based; design: dose 20 mg/kg, route oral; conditions: read-out: Drug uptake
[6] = Plasma concentration in mouse at 20 mg/kg, po measured at 1 hr; format: ADME, organism-based; design: dose 20 mg/kg, route oral
[7] = Intrinsic clearance in human liver microsomes; format: ADME; conditions: read-out: CLH

Row | logD at 0.5 h [2] | pKa [4] | microsomal CLint [7] | SMILES | other results
1 | > 4.3 |  |  | Cc1ccccc1-c1nc2ccc(-c3ccc(Cl)cc3)cc2c(=O)n1C[C@H]1CCCN(C(C)C)C1 | logD [1]: 5; solubility at 24 h [3]: 45 µM (≈ 21.9 µg/mL)
2 | > 4.3 | 8.5 |  | COCCN1CCC[C@@H](Cn2c(-c3ccccc3C)nc3cc(-c4ccc(Cl)cc4)sc3c2=O)C1 | logD [1]: 5.6
3 | 3.5 | 9.2 |  | COCCN1CCC[C@@H](Cn2c(-c3ccccc3C)nc3nc(-c4ccc(Cl)cc4)sc3c2=O)C1 | logD [1]: 5.1
4 | 3.3 | 8.5 |  | COCCN1CCC[C@@H](Cn2c(-c3ccccc3C)nc3cn(-c4ccc(Cl)cc4)nc3c2=O)C1 | logD [1]: 3.7
5 | 1.3 | 9.7 |  | COc1cccc(-n2cc3nc(-c4cccnc4C)n(C[C@H]4CCCN(C(C)C)C4)c(=O)c3n2)c1 | solubility at 24 h [3]: > 2700 µM
6 | 1.3 | 8.4 |  | COCCN1CCC[C@H](Cn2c(-c3cccnc3C)nc3cn(-c4cccc(OC)c4)nc3c2=O)C1 | 
7 | 1.4 |  |  | COCCN1CCC[C@H](Cn2c(-c3cccnc3C)nc3cn(C4CCCCC4)nc3c2=O)C1 | 
8 | 2 |  | 17 µL/min/mg | COc1cccc(-n2cc3nc(-c4cccnc4C)n(C[C@H]4CCCN(C[C@H]5CCCO5)C4)c(=O)c3n2)c1 | concentration at 1 h [5]: 240 nM; concentration at 1 h [6]: 1200 nM; solubility at 24 h [3]: > 1500 µM
9 | 1.9 |  | 16 µL/min/mg | COc1cccc(-n2cc3nc(C)n(C[C@H]4CCCN(C[C@H]5CCCO5)C4)c(=O)c3n2)c1 | 
10 | 3.1 |  | 60 µL/min/mg | COc1cccc(-n2cc3nc(CC(C)C)n(C[C@H]4CCCN(C[C@H]5CCCO5)C4)c(=O)c3n2)c1 | 
11 | 1.7 |  | 15 µL/min/mg | Cc1ncccc1-c1nc2cn(-c3ccccc3)nc2c(=O)n1C[C@H]1CCCN(C[C@H]2CCCO2)C1 | 
12 | 1.9 |  | 21 µL/min/mg | COc1ccc(-n2cc3nc(-c4cccnc4C)n(C[C@H]4CCCN(C[C@H]5CCCO5)C4)c(=O)c3n2)cc1 | 
13 | 2.5 |  | 30 µL/min/mg | CCOc1cccc(-n2cc3nc(-c4cccnc4C)n(C[C@H]4CCCN(C[C@H]5CCCO5)C4)c(=O)c3n2)c1 | 
14 | 2.9 |  | 67 µL/min/mg | CCCOc1cccc(-n2cc3nc(-c4cccnc4C)n(C[C@H]4CCCN(C[C@H]5CCCO5)C4)c(=O)c3n2)c1 | 
15 | 2.7 |  | 51 µL/min/mg | Cc1ncccc1-c1nc2cn(-c3cccc(OC(C)C)c3)nc2c(=O)n1C[C@H]1CCCN(C[C@H]2CCCO2)C1 | 
16 | 2.2 |  | 33 µL/min/mg | Cc1ncccc1-c1nc2cn(-c3cccc(OC(F)F)c3)nc2c(=O)n1C[C@H]1CCCN(C[C@H]2CCCO2)C1 | 
17 |  |  |  | Cc1ccccc1-c1nc2cc(-c3ccc(Cl)cc3)sc2c(=O)n1CC1CCCN(C(C)C)C1 (racemic) | logD [1]: 4.8
18 |  | 10 |  | Cc1ccccc1-c1nc2cn(-c3ccc(Cl)cc3)nc2c(=O)n1CC1CCCN(C(C)C)C1 (racemic) | logD [1]: 3.2
19 | 2.3 | 10 |  | Cc1ccccc1-c1nc2cn(-c3ccc(F)cc3)nc2c(=O)n1CC1CCCN(C(C)C)C1 (racemic) | 
20 |  | 10 |  | Cc1ccccc1-c1nc2cn(-c3ccc(C#N)cc3)nc2c(=O)n1CC1CCCN(C(C)C)C1 (racemic) | 
21 | 2.4 | 10 |  | COc1ccc(-n2cc3nc(-c4ccccc4C)n(CC4CCCN(C(C)C)C4)c(=O)c3n2)cc1 (racemic) | 
22 | 3 | 9.8 |  | Cc1ccccc1-c1nc2cn(-c3cccc(Cl)c3)nc2c(=O)n1CC1CCCN(C(C)C)C1 (racemic) | 
23 | 2.5 | 10 |  | COc1cccc(-n2cc3nc(-c4ccccc4C)n(CC4CCCN(C(C)C)C4)c(=O)c3n2)c1 (racemic) | 
24 | 1.8 | 9.9 |  | Cc1ccccc1-c1nc2cn(-c3cccc(C#N)c3)nc2c(=O)n1CC1CCCN(C(C)C)C1 (racemic) | 
25 | 1.1 | 8.5 |  | COCCN1CCCC(Cn2c(-c3cccnc3C)nc3cn(-c4ccc(C#N)cc4)nc3c2=O)C1 (racemic) | 
26 | 1.2 | 6.4 |  | Cc1ncccc1-c1nc2cn(-c3ccc(C#N)cc3)nc2c(=O)n1CC1CCCN(C2COC2)C1 (racemic) | 

Source: ChEMBL document CHEMBL3217433, “Identification of pyrazolo-pyrimidinones as GHS-R1a antagonists and inverse agonists for the treatment of obesity” (Medchemcomm, 2013)
